Test results as given in patent US20150037257A1, “COMPOSITIONS AND METHODS FOR HIGH-THROUGHPUT SCREENING IN SKIN FIBROBLASTS WITH AN ALPHA-SYNUCLEIN TRIPLICATION” (priority 2011, published 2015).

Legend:
Assay type in all cases: cell-based, human
SNCA-Tri fibroblasts [1] = assay: Cellular ATP levels (ATPlite) after paraquat exposure / siRNA knockdown; settings: 300 uM PQ, 48 hrs
Method: (§1) Cellular adenosine triphosphate (ATP) levels were measured using the ATPlite kit (Cat. No. 6016943, Perkin Elmer, Waltham, Mass.) based on the reaction of ATP with added lucifcrase and D-luciferin, according to the manufacturer's instruction. ATP synthesis assays were performed on digitonin-treated fibroblasts. Briefly, for paraquat (PQ) exposure, cells were plated (6,000 cells/well in control cells and 7,500 cells/well in SNCA-Tri cells) for 24 hours prior to exposure to PQ.
(§2) Cells were exposed to freshly prepared PQ (N,N′-dimethyl-4,4′-bipyridinium dichloride) (Sigma, M2254) at 300 uM final concentration in culture media for 48 hours without media change prior to analysis.
(§3) The sequence of SNCA1 siRNA were used after the method of Fountaine et al, 2008. Custom siRNA (Dharmacon, Lafayette, Colo.) at a concentration of 75 nM (scrambled or α-syn targeted siRNA, SNCA1) was transfected at 90% cell confluency using […] Lipofectamine™ 2000 (Invitrogen) according to the manufacturer's instruction. Transfection efficiency was tested to be >90% with siGLO Cyclophilin B control siRNA (Dharmacon) in control fibroblasts.

SNCA-Tri fibroblasts [2] = assay: Cell viability: LDH release (CytoTox-ONE) after paraquat exposure / siRNA knockdown; settings: 300 uM PQ, 48 hrs
Method: (§4) Cell viability was assessed using the CytoTox-ONE Homogeneous Membrane integrity Assay kit (Cat. No 07890, Promega, Madison, Wis.), which is a fluorescent measure of lactate dehydrogenase (LDH) released from cells with a damaged membrane by conversion of resazurin into resorufin. The assay was performed in a 96-well format according to the manufacturers' instructions. Briefly, 10,000 cells/well of control cells and 12,500 cells/well of SNCA-Tri fibroblasts were used for paraquat (PQ) exposure experiments; 12,500 cells/well were used in siRNA knockout experiments. Cell number was measured using WST-1 proliferation reagent (Roche, Indianapolis, Ind.) in a parallel plate.
as §2, §3

control fibroblasts [3] = assay: Cell viability: LDH release (CytoTox-ONE) after paraquat exposure; settings: controls, 300 uM PQ, 48 hrs
Method: as §4, §2

[4] = tested on: α-syn mRNA expression in control fibroblasts; assay: α-syn mRNA expression by qPCR after paraquat exposure; settings: controls, vs naive expression
Method: as §2
(§5) Total RNA was extracted from fibroblasts using TRIzol® (Invitrogen). cDNA from 0.5 ug total RNA was synthesized by reverse transcriptase (iScript cDNA synthesis kit, BioRad, Hercules, Calif.). Primer sequences of SNCA are SNCA-F: AGTTGTGGCTGCTGCTGAG (SEQ ID NO:1) and SNCA-R: […] (SEQ ID NO:2) and of beta-actin are HuActin-F: […] (SEQ ID NO:3) and HuActin-R: GCATTTGCGGTGGACGAT (SEQ ID NO:4). The PCR products of SNCA and beta-actin (as internal control) were amplified using the SYBR Green PCR Master Mix (Applied Biosystems, Carlsbad, Calif.). Amplification of the PCR products was quantitatively measured by the ABI 7000 Sequence Detection System (Applied Biosystems). 2^−ΔΔCt method was used in all quantitative PCR analyses.

[5] = tested on: α-syn mRNA expression in SNCA-Tri fibroblasts; assay: as above
Method: as §2, §5

control fibroblasts [6] = assay: Mitochondrial membrane potential (TMRM) after paraquat exposure; settings: controls, 300 uM PQ, 48 hrs
Method: (§6) Fibroblasts were plated in 96-well plates (6,000 cells/well in the control and 7,500 cells/well in SNCA-Tri cells) and were used for paraquat (PQ) exposure experiments. After 24 hours, cells were changed to galactose medium and cultured for another 24 hours. The mitochondrial membrane potential was measured using the fluorescent dye tetramethylrhodamine methyl ester (TMRM) (Invitrogen) at the final concentration of 150 nM. Cells were incubated for 5 minutes at 37° C. and then washed with phosphate buffered saline (PBS). To remove the plasma membrane contribution from the TMRM fluorescence, each assay was performed in parallel with 10 uM carbonyl cyanide 3-chlorophenylhydrazone (CCCP) (Sigma, St Louis, Mo.), which collapses the mitochondrial membrane potential. All data were expressed as the total TMRM fluorescence minus the CCCP-treated TMRM fluorescence. Cell number was measured using WST-1 proliferation reagent in a parallel plate, according to the manufacturer's instruction. All measurements were performed on a TECAN GENios.
as §2

SNCA-Tri fibroblasts [7] = assay: Mitochondrial membrane potential (TMRM) after paraquat exposure / siRNA knockdown; settings: 300 uM PQ, 48 hrs
Method: as §6, §2, §3

control fibroblasts [8] = assay: Cellular ATP levels (ATPlite) after paraquat exposure; settings: controls, 300 uM PQ, 48 hrs
Method: as §1, §2

control fibroblasts [9] = assay: Dose-response test of control fibroblasts with PQ (cell death); settings: 300 uM PQ, 48 hrs
Method: as §4, §2

## C[n+]1ccc(-c2cc[n+](C)cc2)cc1.[Cl-].[Cl-] [PQ, N,N′-dimethyl-4,4′-bipyridinium dichloride]
SNCA-Tri fibroblasts [1]; 56% vs 33%
  Cellular ATP change, fold change SNCA-Tri vs controls: 1.7 fold
SNCA-Tri fibroblasts [1]; SNCA-Tri vs controls
  decrease of cellular ATP in SNCA-Tri compared to controls after PQ exposure: 59%
SNCA-Tri fibroblasts [1]; SNCA-Tri
  Cellular ATP decrease, untreated vs PQ exposed: 56%
SNCA-Tri fibroblasts [2]; 42% vs 27%
  LDH release change, fold difference SNCA-Tri vs controls: 1.6 fold
SNCA-Tri fibroblasts [2]; SNCA-Tri vs controls
  increase of LDH release in SNCA-Tri compared to controls after PQ exposure: 46%
SNCA-Tri fibroblasts [2]; SNCA-Tri
  LDH release, % change (increase) untreated vs PQ exposed: 42%
Control fibroblasts [3]
  LDH release, % change untreated vs PQ exposed: 27%
[4]
  increase of α-syn mRNA expression after PQ exposure: 2.6 fold
[5]; SNCA-Tri, vs naive expression levels
  increase of α-syn mRNA expression after PQ exposure: 7.5 fold
[5]; after PQ treatment
  α-syn mRNA, fold difference SNCA-Tri over control fibroblasts after PQ treatment: 3.2 fold
Control fibroblasts [6]
  Mitochondrial membrane potential decrease, untreated vs PQ exposed: 40%
SNCA-Tri fibroblasts [7]; 61% vs 40%
  Mitochondrial membrane potential change, fold change SNCA-Tri vs controls: 1.5 fold
SNCA-Tri fibroblasts [7]; SNCA-Tri vs controls
  reduction of mitochondrial membrane potential in SNCA-Tri compared to controls after PQ exposure: 51%
SNCA-Tri fibroblasts [7]; SNCA-Tri
  Mitochondrial membrane potential decrease, untreated vs PQ exposed: 61%
Control fibroblasts [8]
  Cellular ATP decrease, untreated vs PQ exposed: 33%
Control fibroblasts [9]
  cell death: about 25%
